This note sets out measurements from paper PMC3577938 (Organic & biomolecular chemistry, 2013).

What all share (assay type): cell-based
One experiment addresses T1, human TLR7 (Homo sapiens, UniProt Q9NYK1).
T1 sequence (Q9NYK1 27-1049): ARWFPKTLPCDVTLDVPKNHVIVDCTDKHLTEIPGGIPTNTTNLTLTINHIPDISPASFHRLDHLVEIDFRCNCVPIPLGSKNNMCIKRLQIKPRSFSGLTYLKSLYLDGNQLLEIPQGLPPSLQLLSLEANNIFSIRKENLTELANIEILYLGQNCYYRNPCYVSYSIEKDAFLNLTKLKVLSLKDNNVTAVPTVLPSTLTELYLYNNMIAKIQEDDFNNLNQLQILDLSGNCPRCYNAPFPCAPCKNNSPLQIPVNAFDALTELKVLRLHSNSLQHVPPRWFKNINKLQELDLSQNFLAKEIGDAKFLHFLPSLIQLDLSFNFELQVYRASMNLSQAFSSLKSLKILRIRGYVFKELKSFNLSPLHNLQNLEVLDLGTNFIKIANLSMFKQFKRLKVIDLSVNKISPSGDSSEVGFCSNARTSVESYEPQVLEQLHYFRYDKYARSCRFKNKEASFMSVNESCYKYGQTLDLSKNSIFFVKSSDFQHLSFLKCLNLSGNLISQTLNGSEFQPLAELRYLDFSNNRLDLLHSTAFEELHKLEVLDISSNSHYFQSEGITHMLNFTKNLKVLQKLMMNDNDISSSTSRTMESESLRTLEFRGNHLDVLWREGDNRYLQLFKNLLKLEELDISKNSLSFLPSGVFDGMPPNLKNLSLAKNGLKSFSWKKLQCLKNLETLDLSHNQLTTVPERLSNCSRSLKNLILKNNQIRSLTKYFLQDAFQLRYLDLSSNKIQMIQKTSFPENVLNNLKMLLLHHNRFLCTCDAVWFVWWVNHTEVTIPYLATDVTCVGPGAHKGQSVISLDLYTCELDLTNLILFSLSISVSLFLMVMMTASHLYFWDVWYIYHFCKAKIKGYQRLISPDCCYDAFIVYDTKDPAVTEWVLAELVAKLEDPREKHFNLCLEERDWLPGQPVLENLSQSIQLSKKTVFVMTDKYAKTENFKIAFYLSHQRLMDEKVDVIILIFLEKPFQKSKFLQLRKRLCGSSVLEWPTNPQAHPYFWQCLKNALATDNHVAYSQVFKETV
As to the kind of experiment: Human TLR7-specific reporter gene assay. The following applies: for Agonistic Activity (μM) TLR7: EC50 in human TLR7-specific reporter gene assay, Inactive = EC50 >100 μM.

For another experiment, the system named is human TLR7 or human TLR8. The following applies: primary TLR8/TLR7 reporter gene assays, receptor not given. A general note: Reporter assays use an easily measured gene product as a stand-in for the process of interest.
For the next experiment, the target named is T2, human TLR8 (Homo sapiens, UniProt Q9NR97).
T2 sequence (Q9NR97 27-1041): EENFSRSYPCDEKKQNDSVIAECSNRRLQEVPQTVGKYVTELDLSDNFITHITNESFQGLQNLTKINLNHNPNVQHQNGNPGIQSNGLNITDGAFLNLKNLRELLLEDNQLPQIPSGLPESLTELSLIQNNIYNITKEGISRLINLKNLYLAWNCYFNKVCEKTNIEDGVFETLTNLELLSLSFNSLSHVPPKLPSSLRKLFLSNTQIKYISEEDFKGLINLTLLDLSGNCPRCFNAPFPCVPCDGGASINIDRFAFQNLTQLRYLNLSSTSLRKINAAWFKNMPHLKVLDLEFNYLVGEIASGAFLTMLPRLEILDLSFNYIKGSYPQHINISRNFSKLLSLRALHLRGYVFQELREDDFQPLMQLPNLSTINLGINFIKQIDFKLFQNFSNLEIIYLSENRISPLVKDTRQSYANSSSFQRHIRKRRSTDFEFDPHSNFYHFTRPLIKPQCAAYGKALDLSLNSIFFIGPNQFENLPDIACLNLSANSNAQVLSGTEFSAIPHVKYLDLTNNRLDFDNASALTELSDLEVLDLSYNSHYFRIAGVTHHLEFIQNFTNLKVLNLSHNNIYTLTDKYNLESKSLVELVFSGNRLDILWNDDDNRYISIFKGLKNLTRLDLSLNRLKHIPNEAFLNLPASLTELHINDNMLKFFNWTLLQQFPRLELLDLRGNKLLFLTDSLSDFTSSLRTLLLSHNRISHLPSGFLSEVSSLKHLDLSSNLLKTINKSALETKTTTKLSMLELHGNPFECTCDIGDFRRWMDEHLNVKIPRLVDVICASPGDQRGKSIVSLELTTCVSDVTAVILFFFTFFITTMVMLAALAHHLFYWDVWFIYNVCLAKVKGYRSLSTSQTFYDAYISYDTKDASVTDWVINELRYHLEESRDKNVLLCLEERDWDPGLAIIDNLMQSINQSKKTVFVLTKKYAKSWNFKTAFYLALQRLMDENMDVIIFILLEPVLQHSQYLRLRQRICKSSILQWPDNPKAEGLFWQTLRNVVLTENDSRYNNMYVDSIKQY
As to the kind of experiment: Human TLR8-specific reporter gene assay. The following applies: for Agonistic Activity (μM) TLR8: EC50 in human TLR8-specific reporter gene assay, Inactive = EC50 >100 μM.

Structures are written as SMILES.

On to `CCCc1nc2c(N)nc3ccc([N+](=O)[O-])cc3c2s1` [Compound 9, 8-nitro-2-propylthiazolo[4,5-c]quinolin-4-amine], for which the “Agonistic Activity (μM) TLR7” value on human TLR7 is “Inactive”. Besides, the “agonistic activity (in words)” value with human TLR7 or human TLR8 is “inactive”. Moreover, the “Agonistic Activity (μM) TLR8” value on human TLR8 is listed as “Inactive”.

Regarding `CCCc1nc2c(N)nc3ccc(N)cc3c2s1` [Compound 10, 2-propylthiazolo[4,5-c]quinoline-4,8-diamine], the “agonistic activity (in words)” value in the experiment with human TLR7 or human TLR8 was “attenuated activity relative to 8c”.

In the case of `CCCc1nc2c(NC(=O)c3ccccc3)nc3ccccc3c2s1` [Compound 15i, N-(2-propylthiazolo[4,5-c]quinolin-4-yl)benzamide], the “Agonistic Activity (μM) TLR7” value on human TLR7 is on record as “Inactive”. The “agonistic activity (in words)” value in the experiment with human TLR7 or human TLR8 was “entirely inactive”. In addition, the “Agonistic Activity (μM) TLR8” value on human TLR8 is given as “Inactive”.

Turning to `CCCc1nc2c(NC(=N)N)nc3ccccc3c2s1` [Compound 17, 1-(2-propylthiazolo[4,5-c]quinolin-4-yl)guanidine], the “Agonistic Activity (μM) TLR7” value at human TLR7 is listed as “Inactive”. Besides, the “agonistic activity (in words)” value in the experiment on human TLR7 or human TLR8 is “inactive”. For the same molecule, on human TLR8, the “Agonistic Activity (μM) TLR8” value was “Inactive”.

In the case of `CCCCCCNc1nc2ccccc2c2sc(CCC)nc12` [Compound 15b, N-hexyl-2-propylthiazolo[4,5-c]quinolin-4-amine], the “Agonistic Activity (μM) TLR7” value at human TLR7 is given as “Inactive”. For the same molecule, in the experiment on human TLR7 or human TLR8, the “agonistic activity (in words)” value was “devoid of any agonistic activity”. Besides, at human TLR8, the “Agonistic Activity (μM) TLR8” value is reported as “Inactive”.

Consider `CC(C)(C)CCc1nc2c(N)nc3ccccc3c2s1` [Compound 8m, 2-(3,3-dimethylbutyl)thiazolo[4,5-c]quinolin-4-amine], for which, on human TLR7, the “Agonistic Activity (μM) TLR7” value was “Inactive”. The “agonistic activity (in words)” value in the experiment on human TLR7 or human TLR8 is “inactive”. On human TLR8, the “Agonistic Activity (μM) TLR8” value was “Inactive”.

Turning to `CC(C)CCc1nc2c(N)nc3ccccc3c2s1` [Compound 8l, 2-isopentylthiazolo[4,5-c]quinolin-4-amine], on human TLR7, the “Agonistic Activity (μM) TLR7” value is “Inactive”. Further, the “agonistic activity (in words)” value in the experiment with human TLR7 or human TLR8 was “entirely inactive”. The “Agonistic Activity (μM) TLR8” value at human TLR8 is “Inactive”.

`CCCc1nc2c(N)nc3ccc(Br)cc3c2s1` [Compound 14, 8-bromo-2-propylthiazolo[4,5-c]quinolin-4-amine]: the “Agonistic Activity (μM) TLR7” value on human TLR7 is on record as “Inactive”. Also, the “agonistic activity (in words)” value in the experiment on human TLR7 or human TLR8 was “inactive”. For the same molecule, the “Agonistic Activity (μM) TLR8” value on human TLR8 is given as “Inactive”.

For the molecule `CCCCCCCCCCCCCCCC(=O)Nc1nc2ccccc2c2sc(CCC)nc12` [Compound 15h, N-(2-propylthiazolo[4,5-c]quinolin-4-yl)palmitamide], the “Agonistic Activity (μM) TLR7” value at human TLR7 is “Inactive”. In the experiment on human TLR7 or human TLR8, the “agonistic activity (in words)” value was “inactive”. Further, the “Agonistic Activity (μM) TLR8” value on human TLR8 was “Inactive”.

Turning to `CCCc1nc2c(NC(N)=O)nc3ccccc3c2s1` [Compound 15q, 1-(2-propylthiazolo[4,5-c]quinolin-4-yl)urea], on human TLR7, the “Agonistic Activity (μM) TLR7” value is “Inactive”. Moreover, the “agonistic activity (in words)” value with human TLR7 or human TLR8 is “inactive”. Besides, the “Agonistic Activity (μM) TLR8” value at human TLR8 is “Inactive”.

As to `CC(C)c1nc2c(N)nc3ccccc3c2s1` [Compound 8i, 2-isopropylthiazolo[4,5-c]quinolin-4-amine], the “attenuation of activity in TLR7-specific reporter gene assays” value at human TLR7 (isopropyl at C2, fold attenuation) is on record as “about two-fold”. Moreover, the “reduction in TLR8-agonistic potency” value on human TLR8 (isopropyl at C2, fold reduction) is given as “approximately ten-fold”.

On to `CCCc1nc2c(NC(=O)OCC)nc3ccccc3c2s1` [Compound 15n, ethyl (2-propylthiazolo[4,5-c]quinolin-4-yl)carbamate], for which the “Agonistic Activity (μM) TLR7” value at human TLR7 is on record as “Inactive”. For the same molecule, the “Agonistic Activity (μM) TLR8” value at human TLR8 was “Inactive”.

`CCCc1nc2c(N)nc3ccc(N=[N+]=[N-])cc3c2s1` [Compound 11, 8-azido-2-propylthiazolo[4,5-c]quinolin-4-amine]: the “agonistic activity (in words)” value in the experiment on human TLR7 or human TLR8 is “inactive”.

In the case of `CCCCCCCCCCCCCCCCNc1nc2ccccc2c2sc(CCC)nc12` [Compound 15c, N-hexadecyl-2-propylthiazolo[4,5-c]quinolin-4-amine], the “Agonistic Activity (μM) TLR7” value at human TLR7 is listed as “Inactive”. Besides, the “Agonistic Activity (μM) TLR8” value at human TLR8 is reported as “Inactive”.

Take `CCCc1nc2c(N)nc3ccc(-n4cc(C(C)(C)O)nn4)cc3c2s1` [Compound 12a, 2-(1-(4-amino-2-propylthiazolo[4,5-c]quinolin-8-yl)-1H-1,2,3-triazol-4-yl)propan-2-ol]: the “Agonistic Activity (μM) TLR7” value at human TLR7 is “Inactive”. Moreover, the “Agonistic Activity (μM) TLR8” value at human TLR8 is recorded as “Inactive”.

For the molecule `CCCC(=O)Nc1ccc2nc(N)c3nc(CCC)sc3c2c1` [Compound 13b, N-(4-amino-2-propylthiazolo[4,5-c]quinolin-8-yl)butyramide], on human TLR7, the “Agonistic Activity (μM) TLR7” value is “Inactive”. Further, the “agonistic activity (in words)” value in the experiment with human TLR7 or human TLR8 was “inactive”. In addition, the “Agonistic Activity (μM) TLR8” value at human TLR8 was “Inactive”.

As to `CCCCCc1cn(-c2ccc3nc(N)c4nc(CCC)sc4c3c2)nn1` [Compound 12e, 8-(4-pentyl-1H-1,2,3-triazol-1-yl)-2-propylthiazolo[4,5-c]quinolin-4-amine], the “Agonistic Activity (μM) TLR7” value at human TLR7 is “Inactive”. Also, the “Agonistic Activity (μM) TLR8” value at human TLR8 is given as “Inactive”.

Turning to `CCCc1nc2c(NS(=O)(=O)CC)nc3ccccc3c2s1` [Compound 15s, N-(2-propylthiazolo[4,5-c]quinolin-4-yl)ethanesulfonamide], on human TLR7, the “Agonistic Activity (μM) TLR7” value is reported as “Inactive”. Moreover, the “Agonistic Activity (μM) TLR8” value on human TLR8 is listed as “Inactive”.

For `CCCc1nc2c(NS(=O)(=O)CCC)nc3ccccc3c2s1` [Compound 15t, N-(2-propylthiazolo[4,5-c]quinolin-4-yl)propane-1-sulfonamide], the “Agonistic Activity (μM) TLR7” value at human TLR7 is recorded as “Inactive”. In addition, the “Agonistic Activity (μM) TLR8” value on human TLR8 is “Inactive”.

In the case of `CCCC(=O)Nc1nc2ccccc2c2sc(CCC)nc12` [Compound 15f, N-(2-propylthiazolo[4,5-c]quinolin-4-yl)butyramide], the “Agonistic Activity (μM) TLR7” value on human TLR7 is given as “Inactive”. In addition, the “agonistic activity (in words)” value with human TLR7 or human TLR8 is “active”.

As for `CCCCCCCCCc1nc2c(N)nc3ccccc3c2s1` [Compound 8h, 2-nonylthiazolo[4,5-c]quinolin-4-amine], the “Agonistic Activity (μM) TLR7” value at human TLR7 is “Inactive”. The “Agonistic Activity (μM) TLR8” value on human TLR8 was “Inactive”.

Take `CCCc1nc2c(N)nc3ccc(-n4cc(CO)nn4)cc3c2s1` [Compound 12b, (1-(4-amino-2-propylthiazolo[4,5-c]quinolin-8-yl)-1H-1,2,3-triazol-4-yl)methanol]: on human TLR7, the “Agonistic Activity (μM) TLR7” value was “Inactive”. Moreover, the “Agonistic Activity (μM) TLR8” value at human TLR8 is listed as “Inactive”.

On to `CCCCS(=O)(=O)Nc1nc2ccccc2c2sc(CCC)nc12` [Compound 15u, N-(2-propylthiazolo[4,5-c]quinolin-4-yl)butane-1-sulfonamide], for which the “Agonistic Activity (μM) TLR7” value at human TLR7 is listed as “Inactive”. The “Agonistic Activity (μM) TLR8” value on human TLR8 is listed as “Inactive”.

`CCCCCCCc1nc2c(N)nc3ccccc3c2s1` [Compound 8g, 2-heptylthiazolo[4,5-c]quinolin-4-amine]: the “Agonistic Activity (μM) TLR7” value at human TLR7 is listed as “Inactive”. For the same molecule, at human TLR8, the “Agonistic Activity (μM) TLR8” value is recorded as “Inactive”.
